In ChEMBL document CHEMBL1201862, “PubChem BioAssay data set” (2004):
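Dose response: 5 concentrations. Exposure: 48 h. Format: 96-well plates. Endpoint: linear interpolation; highest concentration if not reached. GI50: concentration for 50% inhibition of growth.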 Activity calls are given as the source filed them. Rule as the data show it: active = GI50 up to about 1.1 µM and inactive = higher.

Tests used:
Assay in all cases: inhibition of tumour cell growth, NCI panel, 48 h
SF-295 = system: SF-295
SK-OV-3 = system: SK-OV-3
TK-10 = system: TK-10
NCI-H226 = system: NCI-H226
786-0 = system: 786-0
U-251 = system: U-251
HCT-15 = system: HCT-15
NCI-H460 = system: NCI-H460
HOP-92 = system: HOP-92
KM12 = system: KM12
CCRF-CEM = system: CCRF-CEM
SK-MEL-28 = system: SK-MEL-28
UACC-62 = system: UACC-62
HOP-62 = system: HOP-62
PC-3 = system: PC-3
K562 = system: K562
NCI-H23 = system: NCI-H23
RXF 393 = system: RXF 393
SR = system: SR
A498 = system: A498

| SMILES | GI50 (SF-295) | GI50 (SK-OV-3) | GI50 (TK-10) | GI50 (NCI-H226) | GI50 (786-0) | GI50 (U-251) | GI50 (HCT-15) | GI50 (NCI-H460) | GI50 (HOP-92) | GI50 (KM12) | GI50 (CCRF-CEM) | GI50 (SK-MEL-28) | GI50 (UACC-62) | GI50 (HOP-62) | GI50 (PC-3) | GI50 (K562) | GI50 (NCI-H23) | GI50 (RXF 393) | GI50 (SR) | GI50 (A498) |
| --- | --- | --- | --- | --- | --- | --- | --- | --- | --- | --- | --- | --- | --- | --- | --- | --- | --- | --- | --- | --- |
| c1cc(-c2ccc(-c3ccc(-c4ccc(-c5cccc6nsnc56)[nH]4)c4nsnc34)[nH]2)c2nsnc2c1 | > 100 µM (inactive) | > 100 µM (inactive) | > 100 µM (inactive) | > 100 µM (inactive) | > 100 µM (inactive) | > 100 µM (inactive) | > 100 µM | > 100 µM (inactive) | > 100 µM (inactive) | > 100 µM (inactive) | > 100 µM (inactive) | > 100 µM (inactive) | > 100 µM (inactive) | > 100 µM (inactive) | > 100 µM (inactive) | > 100 µM (inactive) | > 100 µM (inactive) | – | – | – |
| CCCC1C[C@H]2CCCCN2[C@H]2CCCN12 (stereo partly specified) | > 100 µM (inactive) | > 100 µM (inactive) | > 100 µM (inactive) | > 100 µM (inactive) | > 100 µM (inactive) | > 44.4 µM (inactive) | > 46.7 µM | > 66.4 µM (inactive) | > 100 µM (inactive) | > 100 µM (inactive) | > 45.9 µM (inactive) | > 100 µM (inactive) | > 100 µM (inactive) | > 100 µM (inactive) | – | > 50.2 µM (inactive) | > 100 µM (inactive) | > 48.2 µM (inactive) | > 40.6 µM (inactive) | > 100 µM (inactive) |
| CC(C)C(=O)/C=C/c1ccc(Cl)cc1 | 13.5 µM (inactive) | 40.5 µM (inactive) | – | – | 11.1 µM (inactive) | 12.9 µM (inactive) | – | 15.7 µM (inactive) | 16.7 µM (inactive) | 11.5 µM (inactive) | 4.19 µM (inactive) | > 10 µM (inactive) | 15.4 µM (inactive) | – | – | 3.48 µM (inactive) | 17 µM (inactive) | 17.6 µM (inactive) | 4.84 µM (inactive) | > 10 µM (inactive) |
| COc1cc(C2c3cc4c(cc3[C@@H](N(C)c3ccc(N(C)C)cc3)C3COC(=O)C23)OCO4)cc(OC)c1O (stereo partly specified) | 0.147 µM (active) | 0.402 µM (active) | 18.5 µM (inactive) | 0.292 µM (active) | 0.489 µM (active) | 0.219 µM (active) | 0.449 µM | 0.352 µM (active) | 1.99 µM (inactive) | 0.377 µM (active) | 0.343 µM (active) | 1.25 µM (inactive) | 0.472 µM (active) | 1.75 µM (inactive) | – | 0.329 µM (active) | 0.291 µM (active) | – | 0.427 µM (active) | 26.8 µM (inactive) |
| CC(=O)C1Cn2c(=O)c3cc4ccccc4cc3c(=O)n2C=C1C (stereo unspecified) | > 100 µM (inactive) | > 100 µM (inactive) | > 100 µM (inactive) | > 100 µM (inactive) | > 100 µM (inactive) | > 100 µM (inactive) | 76.7 µM | 97.9 µM (inactive) | 61.2 µM (inactive) | > 100 µM (inactive) | > 100 µM (inactive) | > 100 µM (inactive) | – | > 100 µM (inactive) | – | > 100 µM (inactive) | > 100 µM (inactive) | > 100 µM (inactive) | > 100 µM (inactive) | 43.5 µM (inactive) |
| CCN(c1ccccc1)[C@H]1C(=O)N(c2ccc([N+](=O)[O-])cc2)[C@H]1c1ccc(OC)cc1 | 52.5 µM (inactive) | 56.8 µM (inactive) | > 100 µM (inactive) | > 100 µM (inactive) | > 100 µM (inactive) | > 100 µM (inactive) | – | > 100 µM (inactive) | 15.8 µM (inactive) | > 100 µM (inactive) | 39.1 µM (inactive) | > 100 µM (inactive) | 35.7 µM (inactive) | – | – | 41.6 µM (inactive) | > 100 µM (inactive) | 37.6 µM (inactive) | > 100 µM (inactive) | 80.7 µM (inactive) |
| Cc1ccc(S(=O)(=O)Nc2cccc3c(=O)nc[nH]c23)cc1 | 82.6 µM (inactive) | > 100 µM (inactive) | > 100 µM (inactive) | > 94.6 µM (inactive) | > 100 µM (inactive) | > 100 µM (inactive) | 61.5 µM | > 100 µM (inactive) | > 39.6 µM (inactive) | > 100 µM (inactive) | 37.2 µM (inactive) | > 100 µM (inactive) | > 87.1 µM (inactive) | > 100 µM (inactive) | – | 43.6 µM (inactive) | 90.8 µM (inactive) | > 65.3 µM (inactive) | 10.7 µM (inactive) | > 100 µM (inactive) |
| O=[N+]([O-])/C(C(Cl)=C(Cl)Cl)=C(\Nc1cccc2ccccc12)Sc1ccccc1 | 15.2 µM (inactive) | 26.1 µM (inactive) | – | 16.1 µM (inactive) | 18.4 µM (inactive) | 11.4 µM (inactive) | 15.7 µM | 19.8 µM (inactive) | – | 13.2 µM (inactive) | 8.55 µM (inactive) | 18.7 µM (inactive) | 10.8 µM (inactive) | 23.9 µM (inactive) | 13.5 µM (inactive) | 57.3 µM (inactive) | 16 µM (inactive) | 12.9 µM (inactive) | – | 11 µM (inactive) |
| NC(=O)c1c[se]c(C2OC(COP(=O)(O)CP(=O)(O)OCC3OC(n4cnc5c(N)ncnc54)C(O)C3O)C(O)C2O)n1 (stereo unspecified) | 53.3 µM (inactive) | > 100 µM (inactive) | – | > 100 µM (inactive) | 63.1 µM (inactive) | 61 µM (inactive) | – | 44.8 µM (inactive) | > 100 µM (inactive) | 66.5 µM (inactive) | 29.1 µM (inactive) | > 100 µM (inactive) | – | > 100 µM (inactive) | – | 15.9 µM (inactive) | > 100 µM (inactive) | > 100 µM (inactive) | 35 µM (inactive) | > 100 µM (inactive) |
| CCOC(=O)Cc1c(C)c2cc(C(=O)c3ccccc3)c(O)cc2oc1=O | 34.8 µM (inactive) | – | 43.4 µM (inactive) | 27.3 µM (inactive) | 39.8 µM (inactive) | 20.8 µM (inactive) | 29.4 µM | 33.3 µM (inactive) | 21.6 µM (inactive) | – | 31.1 µM (inactive) | 34.2 µM (inactive) | 35.3 µM (inactive) | 35.6 µM (inactive) | 24.8 µM (inactive) | 24.7 µM (inactive) | 19.3 µM (inactive) | 41.1 µM (inactive) | – | 25.3 µM (inactive) |
| CC(C)CC(NC(=O)c1cccc(O)c1O)C(=O)NCc1cc(CNC(=O)C(CC(C)C)NC(=O)c2cccc(O)c2O)cc(CNC(=O)C(CC(C)C)NC(=O)c2cccc(O)c2O)c1 (stereo unspecified) | 15.5 µM (inactive) | 9.44 µM (inactive) | 16.2 µM (inactive) | 14.7 µM (inactive) | 42 µM (inactive) | 11.1 µM (inactive) | 23.1 µM | 14 µM (inactive) | 14.6 µM (inactive) | 13.8 µM (inactive) | 4.91 µM (inactive) | 13.7 µM (inactive) | 4.49 µM (inactive) | 15 µM (inactive) | – | 18.9 µM (inactive) | 15.6 µM (inactive) | – | 8.36 µM (inactive) | 24.8 µM (inactive) |
